Data on 1 molecule can be found in patent US9248584B2, “High-temperature spray drying process and apparatus” (Bend Research, Inc., priority 2010, dated 2016).

For orientation: logP means the decadic logarithm of the partition coefficient of the neutral form, usually between octanol and water. Read a low logP as lower lipophilicity.

One data set is described as follows: Log P value. Type of data set: physicochemical.
Data set [1] can be described thus: Room temperature solubility in methanol. As to conditions: room temperature (20° C. to 30° C.). It counts as physicochemical.

In turn, `CCC(=O)O[C@]1(C(=O)SCF)[C@H](C)C[C@H]2[C@@H]3C[C@H](F)C4=CC(=O)C=C[C@]4(C)[C@@]3(F)[C@@H](O)C[C@@]21C` [Active Agent 1, S-(fluoromethyl) 6α,9-difluoro-11β,17-dihydroxy-16α-methyl-3-oxoandrosta-1,4-diene-17β-carbothioate, 17-propionate] had a logP in “Log P value” of 3.7. In data set [1], the solubility in methanol came to 0.3 wt %.
